From patent US20200061062A1, “INHIBITORS OF HUMAN PHOSPHATIDYLINOSITOL 3-KINASE DELTA” (ICOS Corporation, priority 2000, published 2020) come the findings set out here.

Data set [1] concerns the target T1, PI3Kα (Homo sapiens, UniProt P42336).
T1 construct: His tag (pFastbac HTb vector) (N); FLAG; made in house; host or cells: Sf21 insect cells (baculovirus)
The experiment in a line: Biochemical assay of PI3K potency and selectivity using 20 μM ATP, Alpha. To be noted: for Alpha/Delta Ratio: ratio of IC50 values, > = hypothetical ratio with 100 μM substituted for the missing IC50; for remaining activity at 100 µM: read-out: percent activity remaining at 100 μM, 20 μM ATP, 100 μM compound did not inhibit by at least 50%. The method in brief: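 Radioactive phosphate transfer from γ-[32P]ATP onto PIP2/PS liposomes was measured in 20 mM HEPES, pH 7.4, at 20 μM ATP. The 3× substrate stock contained […] and 6 μM PIP2/PS.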

Data set [2] addresses T1, PI3Kα. Nature of the data set: Biochemical assay using 200 μM ATP, Alpha.
A further data set deals with human neutrophils. The experiment in a line: fMLP-induced human neutrophil migration. The class given is cell-based. As for the experimental part:
Neutrophils have the intrinsic capacity to migrate through tissues, and are one of the first cell types to arrive at the sites of inflammation or tissue injury. The effect of D-000 on neutrophil migration towards a concentration gradient of fMLP was measured. The day before the migration assays were performed, 6-well plates were coated with recombinant ICAM-1/Fc fusion protein (Van der Vieren et al., Immunity, 3:683-690 (1995)) (25 μg/mL in bicarbonate buffer, pH 9.3) and left overnight at 4° C. After washing, 1% agarose solution, in RPMI-1640 with 0.5% bovine serum albumin (BSA), was added to wells with or without an inhibitor, and plates were placed into a refrigerator before punching holes in the gelled agarose to create plaques (1 central hole surrounded by 6 peripheral ones per well).
Human neutrophils were obtained as described above, and resuspended in RPMI medium supplemented with 0.5% BSA at 5×10^6 cells/mL. After combining equal volumes of neutrophil suspension and medium (either with DMSO or a serial dilution of the test compound in DMSO), neutrophils were aliquoted into the peripheral holes, while the central hole received fMLP (5 μM). Plates were incubated at 37° C. in the presence of 5% CO2 for 4 hr, followed by termination of migration by the addition of 1% glutaraldehyde solution in D-PBS. After removing the agarose layer, wells were washed with distilled water and dried.
Analysis of neutrophil migration was conducted on a Nikon DIAPHOT® inverted microscope (1× objective) video workstation using the NIH 1.61 program. Using Microsoft Excel and Table Curve 4 (SSPS Inc., Chicago Ill.) programs, a migration index was obtained for each of the studied conditions. Migration index was defined as the area under a curve representing number of migrated neutrophils versus the net distance of migration per cell.
Using the methods described in Examples 3-5, above, compounds of the invention were tested for inhibitory activity and potency in assays of stimulated B and T cell proliferation, neutrophil (PMN) migration, and neutrophil (PMN) elastase release. In Table 4, the values shown are effective concentrations of the compound (EC50; μM). Where no value is given, no assay was performed.

The subject of another data set is T cells. The experiment in a line: T cell proliferation in response to costimulation of CD3+CD28. As to conditions: Homo sapiens, highest tested concentration 10 μM, read-out: Half-maximal inhibition of thymidine incorporation (anti-CD3- and anti-CD28-induced T cell proliferation). In kind it is cell-based. As for the experimental part:
T cell proliferation in response to costimulation of CD3+CD28 was measured. T cells were purified from healthy human blood by negative selection using antibody coated magnetic beads according to the manufacturer's protocol (Dynal) and resuspended in RPMI. The cells were treated with either DMSO or a serial dilution of D-000 in DMSO and plated at 1×10^5 cells/well on a 96-well plate precoated with goat antimouse IgG. Mouse monoclonal anti-CD3 and anti-CD28 antibodies were then added to each well at 0.2 ng/mL and 0.2 μg/mL, respectively. The plate was incubated at 37° C. for 24 hr and [^3H]-thymidine (1 μCi/well) was added. After another 18 hr incubation the cells were harvested with an automatic cell harvester, washed and the incorporated radioactivity was quantified.
(Incorporation of labelled thymidine or its analogues reports DNA synthesis.)

In another data set the test system is human B cells. Nature of the data set: Antibody production by human B cells (IgG and IgM ELISA). In kind it is cell-based. To be noted: B-cell, IL-2 and PANSORBIN stimulation. As for the experimental part: Heparinized blood (200 mL) from healthy volunteers was mixed with an equal volume of D-PBS, layered on 10×10 mL FICOLL-PAQUE® (Pharmacia), and centrifuged at 1600 rpm for 30 min at room temperature. Peripheral blood mononuclear cells (PBMC) were collected from the FICOLL®/serum interface, overlayed on 10 mL fetal bovine serum (FBS) and centrifuged at 800 rpm for 10 min to remove platelets. After washing, cells were incubated with DYNAL® Antibody Mix (B cell kit) (Dynal Corp., Lake Success, N.Y.) for 20 min at 4-8° C. Following the removal of unbound antibody, PBL were mixed with anti-mouse IgG coated magnetic beads (Dynal) for 20 min at 4-8° C. with gentle shaking followed by elimination of labeled non-B cells on the magnetic bead separator. This procedure was repeated once more. The B cells were resuspended in RPMI-1640 with 10% FBS, and kept on ice until further use.
To study antibody production, B cells were aliquoted at 50-75×10^3 cells/well into 96-well plate with or without inhibitor, to which IL-2 (100 U/mL) and PANSORBIN® (Calbiochem) Staphylococcus aureus cells (1:90,000) were added. […] Samples from each condition (in triplicate) were removed, and analyzed for IgG and IgM, as measured by ELISA. […] Color development was stopped by H2SO4 solution, and plates were read on an ELISA plate reader.
In general terms: In an ELISA, binding on a coated surface is turned into a signal by an enzyme label.

The mark [3] stands for this setting: neutrophil (PMN) migration, read-out: Human PMN Migration (EC50).

Read-outs that look alike come from different tables or passages of the source.

T1 sequence (P42336 whole entry): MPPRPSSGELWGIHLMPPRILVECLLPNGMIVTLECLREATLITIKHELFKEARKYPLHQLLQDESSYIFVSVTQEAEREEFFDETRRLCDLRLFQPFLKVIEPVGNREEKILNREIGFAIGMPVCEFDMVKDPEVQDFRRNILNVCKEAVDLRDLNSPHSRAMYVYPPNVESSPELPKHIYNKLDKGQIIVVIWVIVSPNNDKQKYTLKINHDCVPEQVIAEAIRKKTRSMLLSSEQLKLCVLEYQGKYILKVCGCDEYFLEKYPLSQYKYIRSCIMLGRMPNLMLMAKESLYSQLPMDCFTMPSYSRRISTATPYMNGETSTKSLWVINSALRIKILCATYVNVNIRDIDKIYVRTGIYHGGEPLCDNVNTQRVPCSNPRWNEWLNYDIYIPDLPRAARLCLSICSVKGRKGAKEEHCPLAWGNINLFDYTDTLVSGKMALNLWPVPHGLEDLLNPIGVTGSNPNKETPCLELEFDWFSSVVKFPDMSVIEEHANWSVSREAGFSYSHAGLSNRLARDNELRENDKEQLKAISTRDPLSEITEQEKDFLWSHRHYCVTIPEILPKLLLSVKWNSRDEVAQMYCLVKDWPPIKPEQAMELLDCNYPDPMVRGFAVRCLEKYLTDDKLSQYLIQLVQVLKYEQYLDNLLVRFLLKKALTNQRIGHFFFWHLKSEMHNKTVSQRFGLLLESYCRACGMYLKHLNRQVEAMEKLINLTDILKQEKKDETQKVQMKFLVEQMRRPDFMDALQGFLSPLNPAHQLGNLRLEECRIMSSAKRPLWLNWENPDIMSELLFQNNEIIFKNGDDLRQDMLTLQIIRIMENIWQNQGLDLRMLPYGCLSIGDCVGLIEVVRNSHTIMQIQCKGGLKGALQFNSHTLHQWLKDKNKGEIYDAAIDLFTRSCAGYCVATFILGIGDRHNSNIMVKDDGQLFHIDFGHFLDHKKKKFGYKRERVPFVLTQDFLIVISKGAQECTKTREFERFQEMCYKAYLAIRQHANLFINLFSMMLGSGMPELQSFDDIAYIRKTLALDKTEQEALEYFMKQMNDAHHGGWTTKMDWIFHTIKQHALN
T1 sequence (P27986 whole entry partner): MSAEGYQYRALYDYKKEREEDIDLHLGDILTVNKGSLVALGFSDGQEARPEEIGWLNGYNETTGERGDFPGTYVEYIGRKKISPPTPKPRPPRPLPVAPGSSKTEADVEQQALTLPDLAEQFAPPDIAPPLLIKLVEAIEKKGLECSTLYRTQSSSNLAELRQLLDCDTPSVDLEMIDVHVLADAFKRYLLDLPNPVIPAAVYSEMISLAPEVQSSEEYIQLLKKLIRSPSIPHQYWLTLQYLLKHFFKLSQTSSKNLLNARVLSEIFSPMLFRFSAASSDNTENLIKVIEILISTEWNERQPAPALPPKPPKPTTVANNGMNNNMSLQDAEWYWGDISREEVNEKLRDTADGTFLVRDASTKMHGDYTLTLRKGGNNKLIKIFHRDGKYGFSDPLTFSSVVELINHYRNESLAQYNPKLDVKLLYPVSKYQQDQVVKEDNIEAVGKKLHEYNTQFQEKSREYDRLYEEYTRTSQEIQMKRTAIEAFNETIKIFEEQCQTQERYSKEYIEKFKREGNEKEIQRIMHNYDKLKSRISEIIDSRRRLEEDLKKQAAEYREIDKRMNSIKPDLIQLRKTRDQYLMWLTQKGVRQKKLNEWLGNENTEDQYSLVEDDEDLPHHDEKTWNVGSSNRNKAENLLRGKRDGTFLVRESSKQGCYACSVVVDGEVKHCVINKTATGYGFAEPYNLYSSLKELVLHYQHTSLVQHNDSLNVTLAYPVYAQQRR

For `O=c1c2ccccc2nc(CSc2ncnc3[nH]ncc23)n1-c1ccccc1Cl` [Compound D-999, 3-(2-Chlorophenyl)-2-(1H-pyrazolo[3,4-d]pyrimidin-4-ylsulfanylmethyl)-3H-quinazolin-4-one, reference compound], the “Alpha/Delta Ratio” value at PI3Kα [1] (20 μM ATP) was 2.2; at PI3Kα [2], 2. In addition, the IC50 at PI3Kα [1] (20 μM ATP, read-out: Alpha IC50) turned out to be 105 µM. For the same compound, the EC50 with human neutrophils (setting [3]) stood at 1 µM.
As a reminder, the melting point is the temperature of the solid-liquid transition. The remaining activity is the activity still measured, relative to the control. `O=c1c2c(F)cccc2nc(CSc2ncnc3[nH]cnc23)n1-c1ccccc1Cl` [Compound D-015, 3-(2-Chlorophenyl)-5-fluoro-2-(9H-purin-6-ylsulfanylmethyl)-3H-quinazolin-4-one] displayed a melting point of 222.7 to 223.8 °C. Besides, the “Alpha/Delta Ratio” value at PI3Kα [1] (20 μM ATP) is given as greater than 480. On PI3Kα [1], the remaining activity at 100 µM is 65%. Besides, on PI3Kα [2], the “Alpha/Delta Ratio” value worked out at 180. Further, the EC50 in the data set with human neutrophils (setting [3]) stood at 2 µM.
In the case of `O=c1c2ccccc2nc(CSc2ncnc3[nH]cnc23)n1-c1ccccc1Cl` [Compound D-000, 3-(2-chlorophenyl)-2-(9H-purin-6-ylsulfanylmethyl)-3H-quinazolin-4-one], the “Alpha/Delta Ratio” value on PI3Kα [1] (20 μM ATP) is recorded as greater than 302; on PI3Kα [2] it was 91. Moreover, the IC50 on PI3Kα [1] (Example 2 assay conditions, limit of 100 μM compound, read-out: IC50, α isoform of PI3K (FIG. 1)) was greater than 100 µM; in the data set with T cells, greater than 10 µM; in the data set on human B cells (FIG. 7, read-out: Half-maximal inhibition of IgG production) it was roughly 7 µM; in the data set with human B cells (FIG. 7, read-out: Half-maximal inhibition of IgM production) it was roughly 1 µM. Besides, on PI3Kα [1], the remaining activity at 100 µM stood at 86%. The EC50 with human neutrophils (Neutrophil, fMLP (5 μM) gradient, 4 hr, FIG. 5, read-out: EC50 for inhibition of neutrophil migration) was roughly 1 µM; with human neutrophils (setting [3]), 1 to 5 µM.
Regarding `O=c1c2c(Cl)cccc2nc(CSc2ncnc3[nH]cnc23)n1-c1ccccc1Cl` [Compound D-025, 5-Chloro-3-(2-chlorophenyl)-2-(9H-purin-6-ylsulfanylmethyl)-3H-quinazolin-4-one], the melting point is 233.7 to 234.4 °C (dec.). The “Alpha/Delta Ratio” value at PI3Kα [1] (20 μM ATP) was greater than 909. Moreover, the remaining activity at 100 µM at PI3Kα [1] is 73%. Further, the “Alpha/Delta Ratio” value on PI3Kα [2] worked out at 556. For the same compound, the EC50 in the data set on human neutrophils (setting [3]) is 0.3 ± 0.3 µM.
